We go through 23 compounds from patent US20240390383A1, “DIOXAZINES AND THEIR USE IN TREATMENT OF GBA-RELATED DISEASES” (ZEVRA DENMARK A/S, priority 2021, published 2024).

The target in this test is T1, GCase (GBA) in human fibroblast cell line GM10915 harboring the L444P GBA mutation (Homo sapiens, UniProt P04062, L483P).
T1 construct: Human fibroblast cell line GM10915 harboring the L444P GBA mutation; host or cells: GM10915 human fibroblasts
T1 sequence (P04062 40-536 L483P): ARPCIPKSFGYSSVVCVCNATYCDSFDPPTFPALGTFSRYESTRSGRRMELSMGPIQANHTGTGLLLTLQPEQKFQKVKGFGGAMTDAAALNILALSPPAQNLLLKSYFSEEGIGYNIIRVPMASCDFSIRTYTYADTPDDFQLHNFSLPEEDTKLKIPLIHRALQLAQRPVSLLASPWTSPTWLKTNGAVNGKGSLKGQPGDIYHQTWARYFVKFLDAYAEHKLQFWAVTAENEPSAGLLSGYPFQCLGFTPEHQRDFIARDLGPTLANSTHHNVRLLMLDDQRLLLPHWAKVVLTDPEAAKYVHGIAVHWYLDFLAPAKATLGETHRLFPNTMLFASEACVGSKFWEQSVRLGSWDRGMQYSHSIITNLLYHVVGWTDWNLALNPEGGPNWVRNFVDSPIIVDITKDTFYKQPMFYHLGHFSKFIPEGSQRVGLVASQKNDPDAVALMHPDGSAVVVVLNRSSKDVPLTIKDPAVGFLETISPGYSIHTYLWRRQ
In words: GCase activity assay (4-MUG substrate, normalised to crystal violet staining) in L444P GBA fibroblasts. It counts as cell-based. Particulars: 5 days exposure; for GBA EC1.5: concentration giving 150% GCase activity (1.5-fold induction), 8-point dose range; for Emax: maximum percent GCase activity relative to untreated cells in the dose range tested. Here is the method:
Human fibroblast cell line GM10915 harboring the L444P GBA mutation was obtained from Coriell Biorepositories.
All chemicals (Glacial acetic acid, Glycine, 4-Methylumbelliferyl b-D-glucopyranoside (4-MUG), Sodium acetate trihydrate, Sodium hydroxide, Crystal violet, SDS, Ammonium hydroxide) were obtained from Sigma-Aldrich (Denmark) Compounds tested for GCase activity were dissolved in H2O or DMSO.
The GM10915 cell line was cultured under standard cell culture conditions (37° C. and 5% CO2) in complete DMEM medium supplemented with nonessential amino acids (NEAA), 1% Pen-Strep and 12% FCS. Cells were seeded at a density of 10^4 cells/well in 100 μL complete medium in one black 96-well plate for glucosylceramidase (GCase) activity measurement and in one clear 96-well plate for crystal violet staining to correct for cell density. Crystal violet staining is performed to obtain quantitative information about the relative density of cells adhering to multi-wells plates.
The assay was adapted from Sawkar et al (2002) and briefly described in the following. The day after seeding of cells, the medium was replaced with fresh medium containing the compounds to be tested. Compounds were tested in duplicate and in an 8-point diluted dose range to obtain a dose response. Cells were exposed with compounds for five days. Fresh compound was added every 2-3 days. PBS was included to define the basal level of GCase activity.
Cells were washed three times with 200 μL PBS per well and 50 μL of 2.5 mM 4-MUG buffer (4-MUG dissolved in 0.2 M acetate buffer pH 4.0) was added and the cells were incubated at 37° C., 5% CO2 for 23 hours. The reaction was stopped by adding 150 μL 0.2 M glycine buffer (pH 10.8). Fluorescence was measured with a Varioskan® Flash reader (Thermo Scientific) at an excitation/emission setting of 365/445 nm.
Cells were treated with compounds in a parallel setup identical to the setup to test for GCase activity. At the end of compound treatment, cells were washed once with 200 μL PBS per well and 50 μL 0.1% w/v crystal violet (in H2O) was added. Following 10 min. of incubation, the crystal violet solution was removed, and the cells were washed three times with 200 μL PBS and 100 μL 1% SDS was added to solubilize the stain. The plate was agitated on an orbital shaker for 10-30 min. Absorbance (A) is measured at […] using a Varioskan® Flash reader (Thermo Scientific).
The fluorescence signal (F) derived from the GCase measurement is normalized to the absorbance signal (A) derived from the crystal violet staining. The percent GCase activity resulting from compound treatment is calculated relative to the basal activity obtained from untreated cells.
Maximal effect of compounds (Emax) is determined from the dose response effects as the maximum “Percent GCase activity” achieved in the dose range tested.

One may read the Emax as the size of the effect at its maximum, as opposed to the concentration needed. For the compound `Cc1ncccc1CC1(C2=NOCC(CN3CCCCC3)O2)CCNCC1` (racemic) [compound 561, rac-3-(4-((2-methylpyridin-3-yl)methyl)piperidin-4-yl)-5-(piperidin-1-ylmethyl)-5,6-dihydro-1,4,2-dioxazine], the “GBA EC1.5” value was found to be 5 µM and the maximal response (Emax) was 184%.

In the case of `COC1CNC(C)(C2=NOCC(CN3CCCCC3)O2)C1` (racemic) [compound 565, rac-3-(4-methoxy-2-methylpyrrolidin-2-yl)-5-(piperidin-1-ylmethyl)-5,6-dihydro-1,4,2-dioxazine], the “GBA EC1.5” value was 37 µM and the Emax was 168%.

Take `CC1(C2=NOCC(CN3CCCCC3)O2)CCCN1` (racemic) [compound 566, rac-3-(2-methylpyrrolidin-2-yl)-5-(piperidin-1-ylmethyl)-5,6-dihydro-1,4,2-dioxazine]: the “GBA EC1.5” value was found to be 36 µM and the Emax stood at 164%.

Consider `CC1(C2=NOCC(CN3CCCCC3)O2)CCNCC1` (racemic) [compound 568, rac-3-(4-methylpiperidin-4-yl)-5-(piperidin-1-ylmethyl)-5,6-dihydro-1,4,2-dioxazine], for which the “GBA EC1.5” value worked out at 6 µM and the Emax was 281%.

For the compound `C1CCN(CC2CON=C(C3(C4CCOCC4)CCNC3)O2)CC1` (racemic) [compound 583, rac-5-(piperidin-1-ylmethyl)-3-(3-(tetrahydro-2H-pyran-4-yl)pyrrolidin-3-yl)-5,6-dihydro-1,4,2-dioxazine], the “GBA EC1.5” value is 14 µM and the maximal effect (Emax) is 188%.

As to `COCC1(C2=NOCC(CN3CCCCC3)O2)CCNC1` (racemic) [compound 594, rac-3-(3-(methoxymethyl)pyrrolidin-3-yl)-5-(piperidin-1-ylmethyl)-5,6-dihydro-1,4,2-dioxazine], the “GBA EC1.5” value turned out to be 49 µM and the Emax is 152%.

`CN1CCCC(C(C)(C)C2=NOCC(CN3CCCCC3)O2)C1` (racemic) [compound 595, rac-3-(2-(1-methylpiperidin-3-yl)propan-2-yl)-5-(piperidin-1-ylmethyl)-5,6-dihydro-1,4,2-dioxazine]: the “GBA EC1.5” value was determined as 6 µM and the Emax was 172%.

For `COC1(C2=NOCC(CN3CCCCC3)O2)CCNC1` (racemic) [compound 606, rac-3-(3-methoxypyrrolidin-3-yl)-5-(piperidin-1-ylmethyl)-5,6-dihydro-1,4,2-dioxazine], the “GBA EC1.5” value is 20 µM and the Emax was determined as 292%.

As to `NC1CCC(C2=NOCC(CN3CCCCC3)O2)CC1` (racemic) [compound 611, rac-4-(5-(piperidin-1-ylmethyl)-5,6-dihydro-1,4,2-dioxazin-3-yl)cyclohexan-1-amine], the “GBA EC1.5” value came out at 26 µM and the Emax stood at 299%.

For the compound `CC1ON=C(C2CCNC2)OC1CN1CCCCC1` (racemic) [compound 616, rac-6-methyl-5-(piperidin-1-ylmethyl)-3-(pyrrolidin-3-yl)-5,6-dihydro-1,4,2-dioxazine], the “GBA EC1.5” value came to 6 µM and the Emax stood at 390%.

For `CC1ON=C(C2CCN(C(C)C)C2)OC1CN1CCCCC1` (racemic) [compound 621, rac-3-(1-isopropylpyrrolidin-3-yl)-6-methyl-5-(piperidin-1-ylmethyl)-5,6-dihydro-1,4,2-dioxazine], the “GBA EC1.5” value worked out at 10 µM and the Emax was found to be 276%.

Turning to `C[C@@H]1CC(C2=NOCC(CN3CCCCC3)O2)C[C@H](C)N1` (mixture of isomers) [compound 633, rac-3-((2R,6S)-2,6-dimethylpiperidin-4-yl)-5-(piperidin-1-ylmethyl)-5,6-dihydro-1,4,2-dioxazine], the “GBA EC1.5” value stood at 5 µM and the maximum response (Emax) amounted to 226%.

Regarding `CN(C)C12CCC(C3=NOCC(CN4CCCCC4)O3)(CC1)CC2` (racemic) [compound 640, rac-N,N-dimethyl-4-(5-(piperidin-1-ylmethyl)-5,6-dihydro-1,4,2-dioxazin-3-yl)bicyclo[2.2.2]octan-1-amine], the “GBA EC1.5” value came to 6 µM and the Emax came to 183%.

As to `C1CCN(CC2CON=C(C34CCN(CC3)C4)O2)CC1` (racemic) [compound 641, rac-3-(1-azabicyclo[2.2.1]heptan-4-yl)-5-(piperidin-1-ylmethyl)-5,6-dihydro-1,4,2-dioxazine], the “GBA EC1.5” value was determined as 3 µM and the Emax stood at 275%.

As to `C1CCN(CC2CON=C(C34CCN(CC3)CC4)O2)CC1` (racemic) [compound 642, rac-5-(piperidin-1-ylmethyl)-3-(quinuclidin-4-yl)-5,6-dihydro-1,4,2-dioxazine], the “GBA EC1.5” value came out at 3 µM and the Emax amounted to 282%.

Consider `c1cncc(CC2(C3=NOCC(CN4CCCCC4)O3)CCNC2)c1` (racemic) [compound 643, rac-5-(piperidin-1-ylmethyl)-3-(3-(pyridin-3-ylmethyl)pyrrolidin-3-yl)-5,6-dihydro-1,4,2-dioxazine], for which the “GBA EC1.5” value is 18 µM and the Emax is 178%.

As for `C1CCN(CC2CON=C(C3CN4CCC3CC4)O2)CC1` (racemic) [compound 644, rac-5-(piperidin-1-ylmethyl)-3-(quinuclidin-3-yl)-5,6-dihydro-1,4,2-dioxazine], the “GBA EC1.5” value stood at 5 µM and the Emax is 264%.

In the case of `CN1CCCC(C2=NOCC(CN3CCCCC3)O2)C1` (racemic) [compound 648, rac-3-(1-methylpiperidin-3-yl)-5-(piperidin-1-ylmethyl)-5,6-dihydro-1,4,2-dioxazine], the “GBA EC1.5” value was determined as 4.3 µM and the Emax came to 201%.

Regarding `c1ncn2c1CC(C1=NOCC(CN3CCCCC3)O1)CC2` (racemic) [compound 655, rac-5-(piperidin-1-ylmethyl)-3-(5,6,7,8-tetrahydroimidazo[1,5-a]pyridin-7-yl)-5,6-dihydro-1,4,2-dioxazine], the “GBA EC1.5” value is 8 µM and the Emax stood at 232%.

Regarding `c1cn2c(n1)CC(C1=NOCC(CN3CCCCC3)O1)CC2` (racemic) [compound 660, rac-5-(piperidin-1-ylmethyl)-3-(5,6,7,8-tetrahydroimidazo[1,2-a]pyridin-7-yl)-5,6-dihydro-1,4,2-dioxazine], the “GBA EC1.5” value was 9 µM and the Emax turned out to be 212%.

Turning to `CC1(C2=NOCC(CN3CCC(F)(F)CC3)O2)CCNCC1` (racemic) [compound 673, rac-5-((4,4-difluoropiperidin-1-yl)methyl)-3-(4-methylpiperidin-4-yl)-5,6-dihydro-1,4,2-dioxazine], the “GBA EC1.5” value was 49 µM and the maximal response (Emax) stood at 151%.

For `COC1CNCC(C2=NOCC(CN3CCCCC3)O2)C1` (racemic) [compound 680, rac-3-(5-methoxypiperidin-3-yl)-5-(piperidin-1-ylmethyl)-5,6-dihydro-1,4,2-dioxazine], the “GBA EC1.5” value turned out to be 20 µM and the maximal effect (Emax) worked out at 209%.

For the compound `COCCC1(C2=NOCC(CN3CCCCC3)O2)CCNC1` (racemic) [compound 685, rac-3-(3-(2-methoxyethyl)pyrrolidin-3-yl)-5-(piperidin-1-ylmethyl)-5,6-dihydro-1,4,2-dioxazine], the “GBA EC1.5” value came out at 12 µM and the Emax amounted to 270%.
